Results published in patent US11661427B2, “Tetrazole derivatives as TRPA1 inhibitors” (Boehringer Ingelheim International GmbH, priority 2020, dated 2023).

Columns and labels:
[1] = Assay C: Hepatocyte clearance; format: in vitro ADME, human; settings: hepatocyte suspension, 5% species serum, 1 μM test compound, six hours
Procedure: Evaluation of Hepatocyte Clearance Assay C: Hepatocyte Clearance
The metabolic degradation of the test compound is assayed in a hepatocyte suspension. Hepatocytes (cryopreserved) are incubated in Dulbecco's modified eagle medium (supplemented with 3.5 μg glucagon/500 mL, 2.5 mg insulin/500 mL and 3.75 mg/500 mL hydrocortison) containing 5% species serum.
Following a 30 min preincubation in an incubator (37° C., 10% CO2) 5 μl of test compound solution (80 μM; from 2 mM in DMSO stock solution diluted 1:25 with medium) are added into 395 μl hepatocyte suspension (cell density in the range 0.25-5 Mio cells/mL depending on the species, typically 1 Mio cells/mL; final concentration of test compound 1 μM, final DMSO concentration 0.05%).
The cells are incubated for six hours (incubator, orbital shaker) and samples (25 μl) are taken at 0, 0.5, 1, 2, 4 and 6 hours. Samples are transferred into acetonitrile and pelleted by centrifugation (5 min). The supernatant is transferred to a new 96-deepwell plate, evaporated under nitrogen and resuspended.
Decline of parent compound is analyzed by HPLC-MS/MS
CLint is calculated as follows CL_[…]=Dose/AUC=(C0/CD)/(AUD+clast/k)×1000/60. C0: initial concentration in the incubation [μM], CD: cell density of vital cells [10e6 cells/mL], AUD: area under the data [μM×h], clast: concentration of last data point [μM], k: slope of the regression line for parent decline [h−1].
The calculated in vitro hepatic intrinsic clearance can be scaled up to the intrinsic in vivo hepatic Clearance and used to predict hepatic in vivo blood clearance (CL) by the use of a liver model (well stirred model).

[2] = Assay B: Microsomal clearance; format: in vitro ADME; settings: pooled liver microsomes, 1 μM test compound, 37° C.; Tables 5 and 6 of the same assay are headed human LM [% Qh]
Procedure: Evaluation of Microsomal Clearance Assay B: Microsomal Clearance:
The metabolic degradation of the test compound is assayed at 37° C. with pooled liver microsomes. The final incubation volume of 100 μl per time point contains TRIS buffer pH 7.6 at RT (0.1 M), magnesium chloride (5 mM), microsomal protein (1 mg/ml) and the test compound at a final concentration of 1 μM.
Following a short preincubation period at 37° C., the reactions are initiated by addition of beta-nicotinamide adenine dinucleotide phosphate, reduced form (NADPH, 1 mM) and terminated by transferring an aliquot into solvent after different time points (0, 5, 15, 30, 60 min). Additionally, the NADPH-independent degradation is monitored in incubations without NADPH, terminated at the last time point. The [%] remaining test compound after NADPH independent incubation is reflected by the parameter c(control) (metabolic stability). The quenched incubations are pelleted by centrifugation (10000 g, 5 min).
An aliquot of the supernatant is assayed by LC-MS/MS for the amount of parent compound. The half-life (t1/2 INVITRO) is determined by the slope of the semilogarithmic plot of the concentration-time profile.

human TRPA1 ion channel = human TRPA1 ion channel (Homo sapiens (Human), UniProt O75762); experiment: Assay A: TRPA1 assay (FLIPR calcium assay, AITC agonism, HEK293 cells over-expressing human TRPA1); format: cell-based; settings: AITC 10 μM, FLIPRtetra, AUC after AITC addition, read-out: hTRPA1 IC50
Procedure: A human HEK293 cell line over-expressing the human TRPA1 ion channel (Perkin Elmer, Product No. AX-004-PCL) is used as a test system for compound efficacy and potency. Compound activity is determined by measuring the effect of compounds on intracellular calcium concentration induced by AITC (Allylisothiocyanat) agonism in a FLIPRtetra system (Molecular Devices).
Cells are grown in culture medium (MEM/EBSS medium with 10% FCS and 0.4 mg/ML Geneticin). […] For sub-culturing cells are detached from flasks by Versene. At the day before the assay, cells are detached, washed twice with medium (MEM/EBSS medium with 10% FCS) and 20000 cells in 20 μl/well are seeded to Poly D-Lysin biocoated 384-well plates (black, clear bottom, Cat. 356697) from Corning. Plates are incubated for 24 hours at 37° C./5% CO2 before use in the assay.
The test compounds are dissolved in 100% DMSO at a concentration of 10 mM and in a first step diluted in DMSO to a concentration of 5 mM, followed by serial dilution steps in 100% DMSO. Dilution factor and number of dilution steps may vary according to needs. Typically 8 different concentrations by 1:5 dilutions are prepared, further intermediate dilutions (1:20) of the substances are carried out with HBSS/HEPES buffer (1×HEPES, Cat. 14065 from Gibco, 20 mM HEPES, Cat. 83264 from SIGMA, 0.1% BSA Cat. 11926 from Invitrogen, pH 7.4
At the assay day cells are washed 3× with assay puffer, 20 μL buffer remaining in the wells after washing. 10 μL Ca6 kit (Cat. R8191 MolecularDevices) loading buffer in HBSS/HEPES is added to the cells and the plates are incubated with lid for 120 minutes at 37°/5% CO2. 10 μL of compound or controls in HBSS/HEPES buffer/5% DMSO from the intermediate dilution plate are carefully added to the wells. […] Finally 10 μL of the agonist AITC 50 μM dissolved in HBSS/HEPES buffer/0.05% DMSO (final concentration 10 μM) is added to the wells followed by an additional read on the FLIPRtetra device for 10 minutes. The area under the signal curve (AUC) after AITC addition is used for IC50/% inhibition calculations
Each assay microtiter plate contains wells with vehicle (1% DMSO) controls instead of compound as controls for AITC induced luminescence (100% CTL; high controls) and wells with vehicle controls without AITC as controls for non-specific changes in luminescence (0% CTL; low controls).
The analysis of the data is performed by the calculation of the area under signal curve of the individual wells. Based on this values the % value for the measurement of each substance concentration is calculated (AUC(sample)−AUC(low))*100/(AUC(high)−AUC(low)) using MegaLab software (in house development). The IC50 values are calculated from the % control values using MegaLab software. Calculation: [y=(a−d)/(1+(x/c)^B)+d], a=low value, d=high value; x=conc M; c=IC50 M; b=hill; y=% ctrl

Chain of human TRPA1 ion channel (O75762 whole entry): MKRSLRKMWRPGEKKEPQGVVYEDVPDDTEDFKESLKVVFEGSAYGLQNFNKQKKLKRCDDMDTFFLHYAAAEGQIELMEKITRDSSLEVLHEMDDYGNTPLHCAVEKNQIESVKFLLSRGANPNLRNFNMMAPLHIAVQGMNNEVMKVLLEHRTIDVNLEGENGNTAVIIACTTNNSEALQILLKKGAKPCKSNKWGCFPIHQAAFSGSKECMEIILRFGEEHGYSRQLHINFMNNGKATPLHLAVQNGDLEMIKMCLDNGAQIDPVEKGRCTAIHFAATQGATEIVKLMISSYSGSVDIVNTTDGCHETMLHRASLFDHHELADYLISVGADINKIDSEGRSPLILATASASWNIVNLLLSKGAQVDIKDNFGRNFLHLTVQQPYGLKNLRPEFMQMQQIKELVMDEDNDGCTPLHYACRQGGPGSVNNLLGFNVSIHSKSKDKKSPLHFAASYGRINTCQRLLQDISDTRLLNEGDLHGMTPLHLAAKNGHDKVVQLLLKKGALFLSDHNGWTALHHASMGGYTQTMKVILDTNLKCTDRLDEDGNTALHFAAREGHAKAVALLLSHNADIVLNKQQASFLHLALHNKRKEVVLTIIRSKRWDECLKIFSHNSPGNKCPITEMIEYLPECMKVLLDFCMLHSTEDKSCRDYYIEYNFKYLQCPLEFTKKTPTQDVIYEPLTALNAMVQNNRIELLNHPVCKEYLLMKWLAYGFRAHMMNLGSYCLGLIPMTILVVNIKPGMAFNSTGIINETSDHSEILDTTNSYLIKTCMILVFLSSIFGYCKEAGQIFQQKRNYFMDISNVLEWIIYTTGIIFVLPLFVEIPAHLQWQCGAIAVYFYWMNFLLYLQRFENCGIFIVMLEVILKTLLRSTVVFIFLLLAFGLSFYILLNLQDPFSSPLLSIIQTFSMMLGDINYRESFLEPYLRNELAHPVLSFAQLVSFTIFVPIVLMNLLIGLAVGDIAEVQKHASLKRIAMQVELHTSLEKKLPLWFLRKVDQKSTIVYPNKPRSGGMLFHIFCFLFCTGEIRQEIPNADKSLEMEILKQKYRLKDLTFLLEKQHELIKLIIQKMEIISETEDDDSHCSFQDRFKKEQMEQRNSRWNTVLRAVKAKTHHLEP

SMILES | human Hepatocytes [1] [% Qh] | Assay B result (column head not printed in Table 4) [2] [%] | IC50 (human TRPA1 ion channel) [µM]
Cc1ccc([C@@H](O)Cn2nnc(Cn3cnc4oc(C)c(C(N)=O)c4c3=O)n2)cc1 [Example 1, 3-({2-[(2R)-2-hydroxy-2-(4-methylphenyl)ethyl]-2H-1,2,3,4-tetrazol-5-yl}methyl)-6-methyl-4-oxo-3H,4H-furo[2,3-d]pyrimidine-5-carboxamide] | 4 | < 23 | 0.024
Cc1c(C(N)=O)oc2ncn(Cc3nnn(C[C@H](O)c4cc5ccccc5s4)n3)c(=O)c12 [Example 2] | 23 | < 23 | 0.01
Cc1c(C(N)=O)oc2ncn(Cc3nnn(C[C@H](O)c4ccc(Cl)s4)n3)c(=O)c12 [Example 3] | 5 | < 23 | 0.01
Cc1oc2ncn(Cc3nnn(C[C@H](O)c4cc5ccc(F)cc5s4)n3)c(=O)c2c1C(N)=O [Example 4] | 30 | < 23 | 0.01
Cc1oc2ncn(Cc3nnn(C[C@H](O)c4cc5ccccc5s4)n3)c(=O)c2c1C(N)=O [Example 5] | 23 | < 23 | 0.011
Cc1c(C(N)=O)oc2ncn(Cc3nnn(C[C@H](O)c4cc5cc(Cl)ccc5o4)n3)c(=O)c12 [Example 6] | 24 | < 23 | 0.013
Cc1oc2ncn(Cc3nnn(C[C@H](O)c4ccc(Cl)s4)n3)c(=O)c2c1C(N)=O [Example 7] | 15 | < 23 | 0.02
Cc1ccc([C@@H](O)Cn2nnc(Cn3cnc4oc(C(N)=O)c(C)c4c3=O)n2)cc1 [Example 8] | 14 | < 23 | 0.021
Cc1oc2ncn(Cc3nnn(C[C@H](O)c4ccc(Cl)cc4)n3)c(=O)c2c1C(N)=O [Example 9] | 16 | < 23 | 0.023
Cc1c(C(N)=O)oc2ncn(Cc3nnn(C[C@H](O)c4ccc(Cl)cc4)n3)c(=O)c12 [Example 10] | <4 | < 23 | 0.023
Cc1oc2ncn(Cc3nnn(C[C@H](O)c4cc5ccccc5o4)n3)c(=O)c2c1C(N)=O [Example 11] | 8 | < 23 | 0.026
Cc1oc2ncn(Cc3nnn(C[C@H](O)c4ccc(Br)cc4)n3)c(=O)c2c1C(N)=O [Example 12] | 16 | < 23 | 0.029
Cc1oc2ncn(Cc3nnn(C[C@H](O)c4cc5cccc(F)c5o4)n3)c(=O)c2c1C(N)=O [Example 13] | 22 | 26 | 0.049
Cc1oc2ncn(Cc3nnn(C[C@H](O)c4cc5cc(Cl)ccc5o4)n3)c(=O)c2c1C(N)=O [Example 14] | 42 | 42 | 0.012
Cc1oc2ncn(Cc3nnn(C[C@H](O)c4cc5cc(F)ccc5o4)n3)c(=O)c2c1C(N)=O [Example 15] | 21 | < 23 | 0.018
